Laboratory results from the supplement of paper PMC11208160.

assay: recombinant UMI read abundance after kanamycin selection (control-corrected) (log10(CPM+1)); higher = more efficient recombination; extreme values may be limits of the assay; sequences stand for … in AGTGCAGAGAAAATCGGCCAGTTTTCTCTGCCTGCAGTCCGCATGCCGTGGGACCCCTTGGGTTCTAACCTGTTGCCTAGATTTATGCAGCGGACTGCCTTTCTCCCAAAGTGATAAACCGG…AGGTTGGTTTCACT; site = the 11-nt donor
Procedure, shortened: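 Values are reported as log10(CPM+1), obtained by converting sequencing counts to CPM, averaging replicates and scaling by control-derived factors. The counts came from recombinant UMIs amplified by PCR across the donor–target junction. These UMIs came from a pooled Escherichia coli screen of donor and donor-binding-loop pairs for the IS621 bridge recombinase, plated with IPTG (0.07 mM) plus kanamycin or left unselected, in two replicates each.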
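Note: IS621 bridge recombinase in Escherichia coli cells against a fixed T5 target plasmid.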

First: GCCAAGTCATGGACCGGTTTTCCCGGTAATCCGTATTTGGG (site GCCAAGTCTCC)
Second: GCCAATTCATGGACCGGTTTTCCCGGTAATCCGTATTTGCC (site ACCAATTCTGG)
The “recombinant UMI read abundance (log10)” value of the first is higher: 0.538 for the first, 0 for the second.

Going from “GCCAATTCATGGACCGGTTTTCCCGGTAATCCGTATTTGCC (site CCCAATTCTGG)” to “GCCAATTCATGGACCGGTTTTCCCGGTAATCCGTATTTGCC (site GCCAATTCTGG)”, the “recombinant UMI read abundance (log10)” value rises from 0 to 0.426.

“GCCAATTCATGGACCGGTTTTCCCGGTAATCCGTATTTGCC (site TCCAATTCTGG)” and “GCCACACCATGGACCGGTTTTCCCGGTAATCCGTATTTGTA (site GCCACACCTTA)” are within 0.2 log units of each other in “recombinant UMI read abundance (log10)” value: 0 for the first, 0.0107 for the second.

“GCCACACCATGGACCGGTTTTCCCGGTAATCCGTATTTGTA (site GCCACCCCTTA)” and “GCCACACCATGGACCGGTTTTCCCGGTAATCCGTATTTGTA (site GCCACGCCTTA)” are within 0.2 log units of each other in “recombinant UMI read abundance (log10)” value: 0.00331 for the first, 0.00626 for the second.

Compared with “GCCACACCATGGACCGGTTTTCCCGGTAATCCGTATTTGTA (site GCCACTCCTTA)”, “GCCACGGCATGGACCGGTTTTCCCGGTAATCCGTATTTGTA (site GCCACGACTTA)” is higher in “recombinant UMI read abundance (log10)” value: 0.0198 for the first, 1.24 for the second.

First: GCCACGGCATGGACCGGTTTTCCCGGTAATCCGTATTTGTA (site GCCACGCCTTA)
Second: GCCACGGCATGGACCGGTTTTCCCGGTAATCCGTATTTGTA (site GCCACGGCTTA)
The “recombinant UMI read abundance (log10)” value of the first is lower: 0.106 for the first, 1.62 for the second.

First: GCCACGGCATGGACCGGTTTTCCCGGTAATCCGTATTTGTA (site GCCACGTCTTA)
Second: GCCAGCGCATGGACCGGTTTTCCCGGTAATCCGTATTTGCC (site GCCAGCGCTGG)
The “recombinant UMI read abundance (log10)” value of the first is lower: 0.163 for the first, 1.98 for the second.

Compared with “GCCCCGTCATGGACCGGTTTTCCCGGTAATCCGTATTTGAT (site GCCCCGTCTAT)”, “GCCCCTTCATGGACCGGTTTTCCCGGTAATCCGTATTTGGG (site GCCCCTTCTCC)” is lower in “recombinant UMI read abundance (log10)” value: 2 for the first, 0.712 for the second.

First: GCCGACACATGGACCGGTTTTCCCGGTAATCCGTATTTGTA (site GCCGACACTTA)
Second: GCCGATTCATGGACCGGTTTTCCCGGTAATCCGTATTTGCT (site GCCGATTCTAG)
The “recombinant UMI read abundance (log10)” value of the first is lower: 1.4 for the first, 1.88 for the second.

Compared with “GCCGCCCCATGGACCGGTTTTCCCGGTAATCCGTATTTGGC (site GCCGCCCCTGC)”, “GCCGCTTCATGGACCGGTTTTCCCGGTAATCCGTATTTGGA (site GCCGCTTCTTC)” is higher in “recombinant UMI read abundance (log10)” value: 0 for the first, 1.23 for the second.

“GCCGGGCCATGGACCGGTTTTCCCGGTAATCCGTATTTGCA (site GCCGGGCCTTG)” and “GCCGTACCATGGACCGGTTTTCCCGGTAATCCGTATTTGTT (site GCCGTACCTAA)” are within 0.2 log units of each other in “recombinant UMI read abundance (log10)” value: 0 for the first, 0.0103 for the second.

First: GCCTAGCCATGGACCGGTTTTCCCGGTAATCCGTATTTGTG (site GCCTAGCCTCA)
Second: GCCTATACATGGACCGGTTTTCCCGGTAATCCGTATTTGAC (site GCCTATACTGT)
The “recombinant UMI read abundance (log10)” value of the first is lower: 0.155 for the first, 2.21 for the second.

“GCCTGCCCATGGACCGGTTTTCCCGGTAATCCGTATTTGAT (site GCATGCCCTAT)” and “GCCTGCCCATGGACCGGTTTTCCCGGTAATCCGTATTTGAT (site GCCTGCCCTAT)” are within 0.2 log units of each other in “recombinant UMI read abundance (log10)” value: 0.0137 for the first, 0.201 for the second.

“GCCTGCCCATGGACCGGTTTTCCCGGTAATCCGTATTTGAT (site GCGTGCCCTAT)” and “GCCTGCCCATGGACCGGTTTTCCCGGTAATCCGTATTTGAT (site GCTTGCCCTAT)” are within 0.2 log units of each other in “recombinant UMI read abundance (log10)” value: 0.0203 for the first, 0.00989 for the second.

“GCGAAAACATGGACCGGTTTTCCCGGTAATCCGTATTTGAT (site GCGAAAACTAA)” and “GCGAAAACATGGACCGGTTTTCCCGGTAATCCGTATTTGAT (site GCGAAAACTAC)” are within 0.2 log units of each other in “recombinant UMI read abundance (log10)” value: 0 for the first, 0.0215 for the second.

Compared with “GCGAAAACATGGACCGGTTTTCCCGGTAATCCGTATTTGAT (site GCGAAAACTAG)”, “GCGAAAACATGGACCGGTTTTCCCGGTAATCCGTATTTGAT (site GCGAAAACTAT)” is higher in “recombinant UMI read abundance (log10)” value: 0 for the first, 1.66 for the second.

Going from “GCGAAAACATGGACCGGTTTTCCCGGTAATCCGTATTTGTT (site GCGAAAACTAA)” to “GCGAAAACATGGACCGGTTTTCCCGGTAATCCGTATTTGTT (site GCGAAAACTAC)”, the “recombinant UMI read abundance (log10)” value falls from 2.31 to 0.

First: GCGAAAACATGGACCGGTTTTCCCGGTAATCCGTATTTGTT (site GCGAAAACTAG)
Second: GCGAAAACATGGACCGGTTTTCCCGGTAATCCGTATTTGTT (site GCGAAAACTAT)
The “recombinant UMI read abundance (log10)” value of the first is higher: 1.18 for the first, 0 for the second.

“GCGAAACCATGGACCGGTTTTCCCGGTAATCCGTATTTGCT (site GCGAAAACTAG)” and “GCGAAACCATGGACCGGTTTTCCCGGTAATCCGTATTTGCT (site GCGAAACCTAG)” are the same in “recombinant UMI read abundance (log10)” value: 0 for the first, 0 for the second.

“GCGAAACCATGGACCGGTTTTCCCGGTAATCCGTATTTGCT (site GCGAAAGCTAG)” and “GCGAAACCATGGACCGGTTTTCCCGGTAATCCGTATTTGCT (site GCGAAATCTAG)” are the same in “recombinant UMI read abundance (log10)” value: 0 for the first, 0 for the second.

Compared with “GCGAAGCCATGGACCGGTTTTCCCGGTAATCCGTATTTGGT (site GCGAAGCCTAC)”, “GCGAAGCCATGGACCGGTTTTCCCGGTAATCCGTATTTGGT (site GCGAAGCCTCC)” is lower in “recombinant UMI read abundance (log10)” value: 0.885 for the first, 0.00425 for the second.

Compared with “GCGAAGCCATGGACCGGTTTTCCCGGTAATCCGTATTTGGT (site GCGAAGCCTGC)”, “GCGAAGCCATGGACCGGTTTTCCCGGTAATCCGTATTTGGT (site GCGAAGCCTTC)” is higher in “recombinant UMI read abundance (log10)” value: 0 for the first, 0.234 for the second.

Going from “GCGAAGTCATGGACCGGTTTTCCCGGTAATCCGTATTTGGG (site GCGAAGACTCC)” to “GCGAAGTCATGGACCGGTTTTCCCGGTAATCCGTATTTGGG (site GCGAAGCCTCC)”, the “recombinant UMI read abundance (log10)” value falls from 0.283 to 0.0096.

Going from “GCGAAGTCATGGACCGGTTTTCCCGGTAATCCGTATTTGGG (site GCGAAGGCTCC)” to “GCGAAGTCATGGACCGGTTTTCCCGGTAATCCGTATTTGGG (site GCGAAGTCTCC)”, the “recombinant UMI read abundance (log10)” value rises from 0.019 to 1.21.

“GCGACTACATGGACCGGTTTTCCCGGTAATCCGTATTTGGC (site GCGACTACTGC)” and “GCGACTGCATGGACCGGTTTTCCCGGTAATCCGTATTTGCC (site GCAACTGCTGG)” are within 0.2 log units of each other in “recombinant UMI read abundance (log10)” value: 1.97 for the first, 2 for the second.

First: GCGACTGCATGGACCGGTTTTCCCGGTAATCCGTATTTGCC (site GCCACTGCTGG)
Second: GCGACTGCATGGACCGGTTTTCCCGGTAATCCGTATTTGCC (site GCGACTGCTGG)
The “recombinant UMI read abundance (log10)” value of the first is lower: 0.516 for the first, 1.65 for the second.

“GCGACTGCATGGACCGGTTTTCCCGGTAATCCGTATTTGCC (site GCTACTGCTGG)” and “GCGATGCCATGGACCGGTTTTCCCGGTAATCCGTATTTGGG (site GCGAAGCCTCC)” are within 0.2 log units of each other in “recombinant UMI read abundance (log10)” value: 0 for the first, 0.00846 for the second.

“GCGATGCCATGGACCGGTTTTCCCGGTAATCCGTATTTGGG (site GCGACGCCTCC)” and “GCGATGCCATGGACCGGTTTTCCCGGTAATCCGTATTTGGG (site GCGAGGCCTCC)” are within 0.2 log units of each other in “recombinant UMI read abundance (log10)” value: 0.0196 for the first, 0.0186 for the second.

“GCGATGCCATGGACCGGTTTTCCCGGTAATCCGTATTTGGG (site GCGATGCCTCC)” and “GCGCAAACATGGACCGGTTTTCCCGGTAATCCGTATTTGCT (site GCGAAAACTAG)” are within 0.2 log units of each other in “recombinant UMI read abundance (log10)” value: 0.0291 for the first, 0 for the second.

Going from “GCGCAAACATGGACCGGTTTTCCCGGTAATCCGTATTTGCT (site GCGCAAACTAG)” to “GCGCAAACATGGACCGGTTTTCCCGGTAATCCGTATTTGCT (site GCGGAAACTAG)”, the “recombinant UMI read abundance (log10)” value falls from 1.59 to 0.

“GCGCAAACATGGACCGGTTTTCCCGGTAATCCGTATTTGCT (site GCGTAAACTAG)” and “GCGCCCACATGGACCGGTTTTCCCGGTAATCCGTATTTGTG (site GCGCCCACTCA)” are within 0.2 log units of each other in “recombinant UMI read abundance (log10)” value: 0 for the first, 0.0198 for the second.

“GCGCCTACATGGACCGGTTTTCCCGGTAATCCGTATTTGTT (site GCGCCTACTAA)” and “GCGCGAGCATGGACCGGTTTTCCCGGTAATCCGTATTTGGG (site GCGCGAGCTCC)” are within 0.2 log units of each other in “recombinant UMI read abundance (log10)” value: 0.013 for the first, 0.163 for the second.

First: GCGCTCACATGGACCGGTTTTCCCGGTAATCCGTATTTGAT (site GAGCTCACTAT)
Second: GCGCTCACATGGACCGGTTTTCCCGGTAATCCGTATTTGAT (site GCGCTCACTAT)
The “recombinant UMI read abundance (log10)” value of the first is lower: 0.12 for the first, 2.21 for the second.

Going from “GCGCTCACATGGACCGGTTTTCCCGGTAATCCGTATTTGAT (site GGGCTCACTAT)” to “GCGCTCACATGGACCGGTTTTCCCGGTAATCCGTATTTGAT (site GTGCTCACTAT)”, the “recombinant UMI read abundance (log10)” value rises from 0.00525 to 0.28.

First: GCGGAAGCATGGACCGGTTTTCCCGGTAATCCGTATTTGGT (site GCGGAAGCTAC)
Second: GCGGATGCATGGACCGGTTTTCCCGGTAATCCGTATTTGAA (site GCGGATGCTTT)
The “recombinant UMI read abundance (log10)” value of the first is lower: 1.72 for the first, 2.38 for the second.

“GCGGCACCATGGACCGGTTTTCCCGGTAATCCGTATTTGCA (site GAGGCACCTTG)” and “GCGGCACCATGGACCGGTTTTCCCGGTAATCCGTATTTGCA (site GCGGCACCTTG)” are within 0.2 log units of each other in “recombinant UMI read abundance (log10)” value: 0.00511 for the first, 0 for the second.

“GCGGCACCATGGACCGGTTTTCCCGGTAATCCGTATTTGCA (site GGGGCACCTTG)” and “GCGGCACCATGGACCGGTTTTCCCGGTAATCCGTATTTGCA (site GTGGCACCTTG)” are within 0.2 log units of each other in “recombinant UMI read abundance (log10)” value: 0.008 for the first, 0 for the second.

For “GCGGCTACATGGACCGGTTTTCCCGGTAATCCGTATTTGTC (site GCGGCTACTGA)”, the “recombinant UMI read abundance (log10)” value was 2.67.
